Reference: BindingDB's records for patent US11352356 (Takeda Pharmaceutical Company Limited, 2022)
pEC50: −log10 of the molar value.

target: Plasma kallikrein (Human, UniProt P03952); assay: Inhibitory Activity Assay
Experimental: Example compounds were evaluated for inhibition of the human activated kallikrein enzyme in two formats of an assay employing a fluorogenic peptide substrate. In one assay format, the concentrations of reagents were as follows: 20 mM Tris pH 7.5, 1 mM EDTA, 150 mM sodium chloride, 0.1% PEG-400, 0.1% Triton X-100, 500 pM activated kallikrein enzyme, 300 uM Pro-Phe-Arg-7-amido-4-methylcoumarin substrate. Prior to reaction initiation with substrate, enzyme and inhibitors were preincubated for 30 min at RT. After initiation with substrate, reactions were incubated for 10 min at RT and fluorescence emission at 460 nm from 380 nm excitation measured with a microplate reader. In another assay format, the concentrations of reagents were as follows: 20 mM Tris pH 7.5, 1 mM EDTA, 150 mM sodium chloride, 0.1% PEG-400, 0.1% Triton X-100, 5 pM activated kallikrein enzyme, 300 uM Pro-Phe-Arg-7-amido-4-methylcoumarin substrate. Prior to reaction initiation with substrate, enzyme and inhibitors were preincubated for 30 min at RT. After initiation with substrate, reactions were incubated for 18 h at RT and fluorescence emission at 460 nm from 380 nm excitation measured with a microplate reader.

Plasma kallikrein, sequence (P03952 20-390 S143N limits assumed): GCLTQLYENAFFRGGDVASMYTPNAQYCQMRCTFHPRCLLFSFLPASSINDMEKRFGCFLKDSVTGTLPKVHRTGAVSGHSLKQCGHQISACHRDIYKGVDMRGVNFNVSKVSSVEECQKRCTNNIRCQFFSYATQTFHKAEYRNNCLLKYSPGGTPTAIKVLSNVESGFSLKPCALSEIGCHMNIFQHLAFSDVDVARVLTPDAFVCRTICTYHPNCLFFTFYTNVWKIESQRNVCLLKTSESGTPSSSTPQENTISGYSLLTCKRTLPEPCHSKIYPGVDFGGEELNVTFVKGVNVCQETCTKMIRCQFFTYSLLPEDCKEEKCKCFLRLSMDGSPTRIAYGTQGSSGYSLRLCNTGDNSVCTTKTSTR
Plasma kallikrein, sequence (P03952 391-638 limits assumed): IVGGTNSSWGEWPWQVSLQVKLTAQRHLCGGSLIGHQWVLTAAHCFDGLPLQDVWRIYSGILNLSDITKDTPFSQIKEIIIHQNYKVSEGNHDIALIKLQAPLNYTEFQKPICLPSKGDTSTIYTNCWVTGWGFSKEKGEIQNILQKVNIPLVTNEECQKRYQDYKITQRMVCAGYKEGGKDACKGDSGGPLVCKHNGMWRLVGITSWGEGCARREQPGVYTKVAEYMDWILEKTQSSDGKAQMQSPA

| Structure (SMILES) | pEC50 |
| --- | --- |
| CCOC(COCc1cc(C2CC2)cn2cc(Cn3cc(C(=O)NCc4ncn5ccc(Cl)c(F)c45)nn3)nc12)OCC [US11352356, Compound I-301] | > 9.00 |
| O=C(NCc1ncn2ccc(Cl)cc12)c1cnn(Cc2cn3ccc(C4CC4)c(F)c3n2)c1 [US11352356, Compound I-144] | > 9.00 |
| COC(=O)c1cnn(-c2cc(C3CC3)cn3cc(Cn4cc(C(=O)NCc5ncn6ccc(Cl)c(F)c56)nn4)nc23)c1 [US11352356, Compound I-230] | > 9.00 |
| CC(C)(C)[S+]([O-])NCCOCc1cc(C2CC2)cn2cc(Cn3cc(C(=O)NCc4ncn5ccc(Cl)c(F)c45)nn3)nc12 (stereo unspecified) [US11352356, Compound I-302] | > 9.00 |

Further lines, results first:

| pEC50 | Structure (SMILES) |
| --- | --- |
| > 9.00 | CC(C)(C)OC(=O)C(C)(C)Oc1cc(C2CC2)cn2cc(Cn3cc(C(=O)NCc4ncn5ccc(Cl)c(F)c45)nn3)nc12 [US11352356, Compound I-212] |
| > 9.00 | O=C(NCc1ncn2ccc(Cl)c(F)c12)c1cn(Cc2cn3ccc(C4CC4)cc3n2)nn1 [US11352356, Compound I-148] |
